According to patent publication US4025555A, “Aromatic amidines as antiviral agents in animals” (Pfizer Inc., priority 1976, dated 1977):
Where “and” joins values, the source holds several entries; their conditions need not be identical. Identical values can stand only once.

Each compound was assayed on encephalomyocarditis (EMC) virus (assay: Antiviral activity in mice challenged with lethal dose of encephalomyocarditis (EMC) virus (survival, relative survival, ED50)). Conditions: Mus musculus, ip, 240 h; as mg. dihydrochloride salt; i.p. 18-24 h before EMC virus challenge; day 10; read-out: ED50.
Type: in vivo, female albino mice
Description: The antiviral activity of the compounds of formula I is determined by the following procedure. The test compound is administered to mice by the intraperitoneal route eighteen to twenty-four hours prior to challenging them with a lethal dose of encephalomyocarditis (EMC) virus. The survival rate is determined ten days after challenge and an ED50 [dosage level (mg of compound/kg body weight) required to obtain a fifty percent survival rate] calculated. The procedure in which the drug is given eighteen to twenty-four hours before, and at a distinctly different site from, virus injection is designed to eliminate local effects between drug and virus and identify only those compounds which produce a systemic antiviral response.
Three groups of ten female albino mice (20-25 g. body weight) were given single 0.5 ml. intraperitoneal injections containing dosage levels of 1.5, 5, and 15 mg. of the named compound/kg. body weight, respectively. A fourth control group was given no such injection. Eighteen to twenty-four hours later all four groups were challenged with a 0.2 ml. subcutaneous injection containing 20-30 times the LD50, the dosage level causing a 50% death rate in ten days, of encephalomyocarditis (EMC) virus. The following survival data were recorded for the following ten days:
Antiviral activity is expressed as the relative survival (Sr) in experimental groups compared to the controls on the tenth day after challenge. Sr is defined by the formula [formula] wherein Sr = relative survival […]
Sx = percent survival after ten days in experimental group xi = number of survivors on the ith day in experimental group ei = number of survivors on the ith day in control group
The ED50 [dosage level (mg. of compound/kg. body weight) required to obtain a fifty percent survival rate] is determined graphically by plotting Sr (ordinate) vs. 1n dosage level (abscissa) and then fitting the points with a line of predetermined slope by least squares. The dosage level at which this fitted line has an ordinate of 50 is equivalent to the ED50.
In like manner to that described in Example 113 the antiviral activity was determined for the compounds listed below.

SMILES	ED50 [mg/kg]
CCCCCCCCCCCCCCCCN(CCCCCCCCCCCCCCCC)Cc1cccc(C(=N)N)c1 [Example 2, m-[N,N-Di-(n-hexadecyl)aminomethyl]-benzamidine]	4.7
CCCCCCCCCCCCCCCCN(CCCCCCCCCCCCCCCC)Cc1cccc(C(=N)NC(=O)C(=O)O)c1 [Example 4, m-[N,N-Di(n-hexadecyl)aminomethyl]-N-oxoacetic acid-benzamidine]	9.9
CCCCCCCCCCCCCCCCN(CCCCCCCCCCCCCCCC)Cc1cccc(C(=N)Nc2ccc(OC)cc2)c1 [Example 6, m-[N,N-Di(n-hexadecyl)aminomethyl]-N-(p-methoxyphenyl)-benzamidine]	5.3
CCCCCCCCCCCCCCCCN(CCCCCCCCCCCCCCCC)Cc1cccc(C(=N)Nc2ccccc2)c1 [Example 7]	12.3
CCCCCCCCCCCCCCCCN(CCCCCCCCCCCCCCCC)Cc1cccc(C(=N)Nc2ccc(Cl)cc2)c1 [Example 8]	16
CCCCCCCCCCCCCCCCN(CCCCCCCCCCCCCCCC)Cc1cccc(C(=N)Nc2ccc(C)cc2)c1 [Example 9]	7.7
CCCCCCCCCCCCCCCCN(CCCCCCCCCCCCCCCC)Cc1cccc(C(=N)Nc2ccccn2)c1 [Example 10]	49.3
CCCCCCCCCCCCCCCCN(CCCCCCCCCCCCCCCC)Cc1cccc(C(=N)Nc2ccc(Cl)cc2Cl)c1 [Example 11]	35.7
CCCCCCCCCCCCCCCCN(CCCCCCCCCCCCCCCC)Cc1cccc(C(=N)Nc2ccc(O)cc2)c1 [Example 12]	4.9
CCCCCCCCCCCCCCCCN(CCCCCCCCCCCCCCCC)Cc1cccc(C(=N)Nc2cccc([N+](=O)[O-])c2)c1 [Example 13]	21.6
CCCCCCCCCCCCCCCCN(CCCCCCCCCCCCCCCC)Cc1cccc(C(=N)Nc2ccc(N(C)C)cc2)c1 [Example 14]	8
CCCCCCCCCCCCCCCCN(CCCCCCCCCCCCCCCC)Cc1cccc(C(=N)Nc2ccc(F)cc2)c1 [Example 15]	38
CCCCCCCCCCCCCCCCN(CCCCCCCCCCCCCCCC)Cc1cccc(C(=N)Nc2ccc(S(N)(=O)=O)cc2)c1 [Example 16]	7
CCCCCCCCCCCCCCCCN(CCCCCCCCCCCCCCCC)Cc1cccc(C(=N)Nc2ncccn2)c1 [Example 17]	12.9
CCCCCCCCCCCCCCCCN(CCCCCCCCCCCCCCCC)Cc1cccc(C(=N)Nc2ccc(OCC)cc2)c1 [Example 18]	17.9
CCCCCCCCCCCCCCCCN(CCCCCCCCCCCCCCCC)Cc1cccc(C(=N)Nc2ccc(S(C)(=O)=O)cc2)c1 [Example 19]	8.9
CCCCCCCCCCCCCCCCN(CCCCCCCCCCCCCCCC)Cc1cccc(C(=N)NC2CCCC2)c1 [Example 20, m-[N,N-Di(n-hexadecyl)aminomethyl]-N-cyclopentyl-benzamidine]	27.3
CCCCCCCCCCCCCCCCN(CCCCCCCCCCCCCCCC)Cc1cccc(C(=N)Nc2nc(C)cs2)c1 [Example 21]	47.5
CCCCCCCCCCCCCCCCN(CCCCCCCCCCCCCCCC)Cc1cccc(C(=N)NCc2ccccc2)c1 [Example 22]	7.8
CCCCCCCCCCCCCCCCN(CCCCCCCCCCCCCCCC)Cc1cccc(C(=N)NN(C)C)c1 [Example 23, m-[N,N-di(n-hexadecyl)aminomethyl]-N-dimethylamino-benzamidine]	5
CCCCCCCCCCCCCCCCN(CCCCCCCCCCCCCCCC)Cc1cccc(C(=N)NC(C)C)c1 [Example 25, m-[N,N-di(n-hexadecyl)aminomethyl]-N-(2-propyl)-benzamidine]	2.8
CCCCCCCCCCCCCCCCN(CCCCCCCCCCCCCCCC)Cc1cccc(C(=N)NCC)c1 [Example 26]	7.6
CCCCCCCCCCCCCCCCN(CCCCCCCCCCCCCCCC)Cc1cccc(C(=N)NC)c1 [Example 27, m-[N,N-di(n-hexadecyl)aminomethyl]-N-methyl-benzamidine]	5.7
CCCCCCCCCCCCCCCCN(CCCCCCCCCCCCCCCC)Cc1cccc(C(=N)NCC(F)(F)F)c1 [Example 28, m-[N,N-Di(n-hexadecyl)aminomethyl]-N-(2,2,2-trifluoroethyl)-benzamidine]	3.8
CCCCCCCCCCCCCCCCN(CCCCCCCCCCCCCCCC)Cc1cccc(C(=N)NCC2CC2)c1 [Example 29]	6.9
CCCCCCCCCCCCCCCCN(CCCCCCCCCCCCCCCC)Cc1cccc(C(=N)Nc2ccc(O)c(C)c2)c1 [Example 30]	7.7
CCCCCCCCCCCCCCCCN(CCCCCCCCCCCCCCCC)Cc1cccc(C(=N)NCCc2cnc[nH]2)c1 [Example 31]	11.7
CCCCCCCCCCCCCCCCN(CCCCCCCCCCCCCCCC)Cc1cccc(C(=N)Nc2ccc([N+](C)(C)C)cc2)c1 [Example 32]	7.4
CCCCCCCCCCCCCCCCN(CCCCCCCCCCCCCCCC)Cc1cccc(C(=N)Nc2ccc(O)cc2O)c1 [Example 33]	37.2

Same assay, conditions: Mus musculus, ip, 240 h; as mg. free base (Example 115); i.p. 18-24 h before EMC virus challenge; day 10; read-out: ED50

SMILES	ED50 [mg/kg]
CCCCCCCCCCCCCCCCN(CCCCCCCCCCCCCCCC)Cc1cccc(C(=N)NCCCS(=O)(=O)O)c1 [Example 3, m-[N,N-Di(n-hexadecyl)aminomethyl]-N-(n-propane)sulfonic acid-benzamidine]	8

Same assay, conditions: Mus musculus, ip, 240 h; i.p. 18-24 h before s.c. EMC virus challenge; graphical, day 10; read-out: ED50 (dosage level required to obtain a fifty percent survival rate)

SMILES	ED50 [mg/kg]
C=CCNC(=N)c1cccc(CN(CCCCCCCCCCCCCCCC)CCCCCCCCCCCCCCCC)c1 [Example 24, m-[N,N-di(n-hexadecyl)aminomethyl]-N-allyl-benzamidine]	4.7

Same assay, conditions: mouse, in vivo, ip

SMILES	Number of Survivors on Day 0	Number of Survivors on Day 1	Number of Survivors on Day 2	Number of Survivors on Day 3	Number of Survivors on Day 4	Number of Survivors on Day 5	Number of Survivors on Day 6
C=CCNC(=N)c1cccc(CN(CCCCCCCCCCCCCCCC)CCCCCCCCCCCCCCCC)c1 [Example 24, m-[N,N-di(n-hexadecyl)aminomethyl]-N-allyl-benzamidine]	10	10	10	10	9 and 10	8 and 6 and 5	8 and 6 and 4

What follows are compounds tested on circulating interferon (assay: not given). Conditions: mouse, in vivo, ip.
Parameters: species or system female Swiss mice

SMILES	Plasma Interferon Levels
CCCCCCCCCCCCCCCCN(CCCCCCCCCCCCCCCC)Cc1cccc(C(=N)Nc2ccc(O)c(C)c2)c1 [Example 30]	66 units/ml. and 87 units/ml. and 61 units/ml. and 64 units/ml.
